Data on 25 compounds can be found in patent publication US10570117B2, “Phenylimidazole compound” (Otsuka Pharmaceutical Factory, Inc., priority 2015, dated 2020).

In brackets after ≈: the same amount, converted by molar mass. Where two headings read alike, the source gives them in different places.

Series [1] can be described thus: Solubility in gastric juice or intestinal juice model fluid (precipitation method using DMSO). Type of series: physicochemical. Particulars: room temperature. A digest of the protocol:
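Compound in DMSO added to JP disintegration test fluid 1 (pH 1.2) or fluid 2 (pH 6.8) and shaken 24 h at room temperature. After filtration, dissolved concentration (μg/mL) determined by UV absorbance against compound calibration curves.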

Series [2] relates to lipoprotein lipase (LPL) gene. The series can be described thus: LPL mRNA elevating action (RT-PCR quantification of LPL mRNA in C2Cl2 cells). In kind it is cell-based, mouse. Conditions: Mus musculus, 24 h, compound 10 μM, ratio relative to the amount of LPL mRNA in cells with DMSO only, read-out: Rate of increase in LPL mRNA. A digest of the protocol:
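Mouse striated-muscle C2Cl2 cells in DMEM with 10% FBS exposed to compounds at 10 μM for 24 h. LPL mRNA quantified by RT-PCR and real-time PCR (20 cycles), expressed as ratio to DMSO-only cells set at 1.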

[3] abbreviates: pH 1.2, simulated gastric fluid, kinetic from dmso stock, 1st fluid for Disintegration Test of Japanese Pharmacopoeia (pH: 1.2), read-out: Solubility (μg/mL) 1st fluid.
The mark [4] stands for this setting: pH 6.8, kinetic from dmso stock, 2nd fluid for Disintegration Test of Japanese Pharmacopoeia (pH: 6.8), read-out: Solubility (μg/mL) 2nd fluid.

`COc1cc(OCc2cccc(C#N)n2)ccc1-c1c[nH]c(C2CCCCC2)n1` [Example 55]: the melting point fell in the range of 182 to 187 °C. Further, the solubility at 24 h in series [1] (setting [3]) is above 78 µg/mL. Moreover, the solubility at 24 h in series [1] (setting [4]) stood at 2.3 µg/mL (≈ 5.92 µM). Also, the fold induction at 10 µM in series [2] was found to be 4.24.

The compound `COc1cc(-c2c[nH]c(-c3ccc(Cl)nc3)n2)c(OC)cc1OCc1ccc(C(F)(F)F)cn1` [Example 56] came in with a melting point of 204 to 206 °C. In series [1] (setting [3]), the solubility at 24 h is 4.8 µg/mL (≈ 9.78 µM). The solubility at 24 h in series [1] (setting [4]) was 0.8 µg/mL (≈ 1.63 µM). Also, the fold induction at 10 µM in series [2] was found to be 2.57.

`COc1c(OCc2ccc(C(F)(F)F)cn2)ccc(-c2c[nH]c(C3CCC(F)(F)CC3)n2)c1OC` [Example 57] gave a melting point of 155 to 157 °C. Also, the solubility at 24 h in series [1] (setting [3]) was above 99 µg/mL. In series [1] (setting [4]), the solubility at 24 h amounted to 0.8 µg/mL (≈ 1.61 µM). In addition, in series [2], the fold induction at 10 µM was found to be 3.72.

`COc1cc(OCc2ccc(C(F)(F)F)cn2)ccc1-c1c[nH]c(C2CCC(C)CC2)n1` (stereo not shown) [Example 65]: the melting point is 137 to 142 °C. In addition, in series [1] (setting [3]), the solubility at 24 h is 77.3 µg/mL (≈ 174 µM). Also, the solubility at 24 h in series [1] (setting [4]) is 1.3 µg/mL (≈ 2.92 µM). In addition, the fold induction at 10 µM in series [2] stood at 2.89.

On to `COc1cc(OCc2ccc(C(F)(F)F)cn2)ccc1-c1nc(-c2ccc(Cl)nc2)[nH]c1C` [Example 68], for which the melting point lay within 129 to 132 °C. Besides, the solubility at 24 h in series [1] (setting [3]) is 104 µg/mL (≈ 219 µM). Besides, in series [1] (setting [4]), the solubility at 24 h turned out to be 2.3 µg/mL (≈ 4.84 µM). Besides, the fold induction at 10 µM in series [2] was 2.45.

In the case of `COc1cc(-c2c[nH]c(C3CCC3)n2)ccc1OCc1ccc(C(F)(F)F)cn1` [Example 73], the melting point is 210 to 213 °C (dec.). Besides, the solubility at 24 h in series [1] (setting [3]) was above 108 µg/mL. Also, the solubility at 24 h in series [1] (setting [4]) was 5.3 µg/mL (≈ 13.1 µM). In series [2], the fold induction at 10 µM worked out at 4.07.

`COc1cc(OCc2ccc(C(F)(F)F)cn2)ccc1-c1c[nH]c(C2CCCCC2)n1` [Example 77] gave a melting point of 226 to 228 °C. Further, the solubility at 24 h in series [1] (setting [3]) was 8.7 µg/mL (≈ 20.2 µM). In addition, the solubility at 24 h in series [1] (setting [4]) is 1.3 µg/mL (≈ 3.01 µM). Besides, the fold induction at 10 µM in series [2] came to 3.11.

As to `COc1ccc(-c2nc(-c3ccc(OCc4ccc(C(F)(F)F)cn4)cc3OC)c[nH]2)cn1` [Example 79], the melting point was 187 to 189 °C. For the same compound, the solubility at 24 h in series [1] (setting [3]) was 10.6 µg/mL (≈ 23.2 µM). Further, the solubility at 24 h in series [1] (setting [4]) amounted to 1.2 µg/mL (≈ 2.63 µM). Moreover, in series [2], the fold induction at 10 µM is 1.42.

On to `COc1cc(OCc2ccc(C(F)(F)F)cn2)ccc1-c1c[nH]c(-c2ccc(C)nc2)n1` [Example 80], for which the melting point fell in the range of 203 to 205 °C. For the same compound, the solubility at 24 h in series [1] (setting [3]) is 84.9 µg/mL (≈ 193 µM). In series [1] (setting [4]), the solubility at 24 h amounted to 0.4 µg/mL (≈ 0.908 µM). Further, the fold induction at 10 µM in series [2] is 2.01.

`COc1cc(OCc2ccc(C(F)(F)F)cn2)ccc1-c1c[nH]c(-c2cccnc2)n1` [Example 89] registered a melting point of 240 to 242 °C. The solubility at 24 h in series [1] (setting [3]) was 85.4 µg/mL (≈ 200 µM). For the same compound, the solubility at 24 h in series [1] (setting [4]) was 1.8 µg/mL (≈ 4.22 µM). The fold induction at 10 µM in series [2] worked out at 1.69.

In turn, `COc1cc(OCc2ccncc2C(F)(F)F)ccc1-c1cnc(-c2ccc(Cl)nc2)[nH]1` [Example 100] returned a melting point of 220 to 228 °C. For the same compound, the solubility at 24 h in series [1] (setting [3]) was 15 µg/mL (≈ 32.5 µM). Besides, in series [1] (setting [4]), the solubility at 24 h was below 0.3 µg/mL. Besides, in series [2], the fold induction at 10 µM was found to be 3.05.

Regarding `COc1cc(OCc2ncc(F)cc2F)ccc1-c1cnc(-c2ccc(Cl)nc2)[nH]1` [Example 103], the melting point lay in the range of 190 to 192 °C. In addition, in series [1] (setting [3]), the solubility at 24 h was 36 µg/mL (≈ 84 µM). Besides, in series [1] (setting [4]), the solubility at 24 h was below 0.3 µg/mL. Further, in series [2], the fold induction at 10 µM was determined as 2.36.

As for `COc1cc(OCc2ncc(Cl)cc2F)ccc1-c1cnc(-c2ccc(Cl)nc2)[nH]1` [Example 104], the melting point fell in the range of 211 to 218 °C. The solubility at 24 h in series [1] (setting [3]) was 20.6 µg/mL (≈ 46.3 µM). In addition, the solubility at 24 h in series [1] (setting [4]) is 0.7 µg/mL (≈ 1.57 µM). Moreover, the fold induction at 10 µM in series [2] came out at 2.27.

Regarding `COc1cc(OCc2cncc(C(F)(F)F)c2)ccc1-c1cnc(-c2ccc(Cl)nc2)[nH]1` [Example 106], the melting point was 191 to 203 °C. Moreover, the solubility at 24 h in series [1] (setting [3]) was 31.2 µg/mL (≈ 67.7 µM). Also, in series [1] (setting [4]), the solubility at 24 h was 6.3 µg/mL (≈ 13.7 µM). In addition, in series [2], the fold induction at 10 µM was found to be 2.66.

In turn, `COc1cc(OCc2ccnc(C(F)(F)F)c2)ccc1-c1cnc(-c2ccc(Cl)nc2)[nH]1` [Example 107] gave a melting point of 174 to 223 °C. Also, the solubility at 24 h in series [1] (setting [3]) was 11.2 µg/mL (≈ 24.3 µM). Besides, the solubility at 24 h in series [1] (setting [4]) was determined as 9.6 µg/mL (≈ 20.8 µM). The fold induction at 10 µM in series [2] was 2.68.

Compound `COc1cc(OCc2cccnc2C(F)(F)F)ccc1-c1cnc(-c2ccc(Cl)nc2)[nH]1` [Example 108] showed a melting point of 231 to 233 °C. In addition, in series [1] (setting [3]), the solubility at 24 h is 4.1 µg/mL (≈ 8.9 µM). In addition, the solubility at 24 h in series [1] (setting [4]) is below 0.3 µg/mL. The fold induction at 10 µM in series [2] turned out to be 3.03.

In the case of `COc1cc(O)ccc1-c1c[nH]c(-c2ccc(F)nc2)n1` [Example 109, 4-[2-(6-fluoropyridin-3-yl)-1H-imidazol-5-yl]-3-methoxyphenol], the melting point is 249 to 251 °C (dec.). Also, the solubility at 24 h in series [1] (setting [3]) was above 57 µg/mL. For the same compound, the solubility at 24 h in series [1] (setting [4]) turned out to be 40 µg/mL (≈ 140 µM). The fold induction at 10 µM in series [2] was determined as 1.76.

`COc1cc(OCc2cccnc2C(F)(F)F)ccc1-c1cnc(-c2ccc(F)nc2)[nH]1` [Example 112]: the melting point lay within 187 to 190 °C. Besides, in series [1] (setting [3]), the solubility at 24 h is 12 µg/mL (≈ 27 µM). Also, in series [1] (setting [4]), the solubility at 24 h is 2.1 µg/mL (≈ 4.73 µM). Besides, in series [2], the fold induction at 10 µM was found to be 2.39.

As to `COc1cc(OCc2ncc(C)cc2C)ccc1-c1c[nH]c(-c2ccc(F)nc2)n1` [Example 118], the melting point is 219 to 223 °C (dec.). Further, in series [1] (setting [3]), the solubility at 24 h is 80.2 µg/mL (≈ 198 µM). In addition, in series [1] (setting [4]), the solubility at 24 h came to 2.1 µg/mL (≈ 5.19 µM). In series [2], the fold induction at 10 µM was determined as 2.91.

In the case of `COc1cc(OCc2ncccc2C(F)(F)F)ccc1-c1c[nH]c(-c2ccc(F)nc2)n1` [Example 121], the melting point fell in the range of 201 to 202 °C. Moreover, in series [1] (setting [3]), the solubility at 24 h is above 89 µg/mL. Moreover, the solubility at 24 h in series [1] (setting [4]) turned out to be 1.8 µg/mL (≈ 4.05 µM). The fold induction at 10 µM in series [2] came out at 3.38.

On to `COc1cc(OCc2cnc(C)cn2)ccc1-c1c[nH]c(-c2ccc(F)nc2)n1` [Example 122], for which the melting point is 167 to 170 °C. Besides, the solubility at 24 h in series [1] (setting [3]) is 71.8 µg/mL (≈ 183 µM). In series [1] (setting [4]), the solubility at 24 h worked out at 2.9 µg/mL (≈ 7.41 µM). Moreover, the fold induction at 10 µM in series [2] was 1.7.

In the case of `COc1cc(OCc2ccc(C(F)(F)F)cn2)ccc1-c1c[nH]c(-c2ccc(F)nc2)n1` [Example 124], the melting point was 141 to 144 °C. In addition, the solubility at 24 h in series [1] (setting [3]) is 18.7 µg/mL (≈ 42.1 µM). Besides, the solubility at 24 h in series [1] (setting [4]) was below 1.6 µg/mL. For the same compound, the fold induction at 10 µM in series [2] came to 2.28.

`COc1cc(OCc2cnccc2C(F)(F)F)ccc1-c1cnc(-c2ccc(F)nc2)[nH]1` [Example 131] returned a melting point of 178 to 180 °C. The solubility at 24 h in series [1] (setting [3]) was 87.4 µg/mL (≈ 197 µM). For the same compound, the solubility at 24 h in series [1] (setting [4]) was below 0.3 µg/mL. Further, in series [2], the fold induction at 10 µM was determined as 3.66.

For `COc1cc(OCc2ncc(C(F)(F)F)cc2Cl)ccc1-c1cnc(-c2ccc(F)nc2)[nH]1` [Example 132], the melting point lay within 185 to 187 °C. Further, the solubility at 24 h in series [1] (setting [3]) was 5.9 µg/mL (≈ 12.3 µM). Moreover, the solubility at 24 h in series [1] (setting [4]) was below 0.3 µg/mL. In addition, the fold induction at 10 µM in series [2] was found to be 2.77.

For the compound `COc1cc(OCc2ncc(C(F)(F)F)cc2Br)ccc1-c1cnc(-c2ccc(F)nc2)[nH]1` [Example 133], the melting point fell in the range of 153 to 170 °C. Also, in series [1] (setting [3]), the solubility at 24 h was 29.3 µg/mL (≈ 56 µM). Also, the solubility at 24 h in series [1] (setting [4]) worked out at 2 µg/mL (≈ 3.82 µM). In addition, the fold induction at 10 µM in series [2] stood at 2.43.
